From patent publication US20040210184A1, “Effect of electric field and ultrasound for transdermal drug delivery” (Massachusetts Institute of Technology, priority 1995, published 2004)

Assays:
[1] = human, 1 mM, pH 7.4
Procedure: Full thickness of human cadaver skin (obtained from local hospitals) was heat stripped by immersion in 60° C. water for two minutes followed by the removal of the epidermis. The skin was then stored in a humidified chamber (95% relative humidity) at 4° C. The heat-stripped human epidermis was placed in a custom-made side-by-side permeation chamber, skin area of 0.64 cm^2, designed to adapt an ultrasound transducer at the donor side. The donor compartment was filled with a 1 mM solution of calcein (MW 623, electric charge—4; Sigma Chemicals) (CA) and 1 mM sulphorhodamine (MW 607, electric charge—1; Sigma Chemical) (SR) in 150 mM Phosphate Buffer Saline (PBS; Sigma Chemicals).
The ultrasound probe was inserted into the donor compartment. […]
The fluorometer was set up for dual wavelength measurements (excitation wavelength=488 nm, emission wavelength=515 nm (calcein), and excitation wavelength =586 nm, emission wavelength=607 nm (sulphorhodamine)). […] Transdermal calcein and sulphorhodamine flux was calculated from the fluorescence readings by taking into account parameters such as flow rate, receiver compartment volume, and fluorometer caveat volume. The effluent from the receptor compartment was pumped through a spectrofluorometer (Fluorolog-II-system F112AI SPEX-industries, Edison, N.J.) where the fluorescence of calcein and sulphorhodamine was separately measured twice every minute. […]

[2] = Stability of the molecules under electroporating conditions and temperature, measured by fluorescence; assay type: physicochemical; conditions: 1 mM solutions under electroporating conditions
Procedure: In order to assess the stability of these molecules during electroporation, calcein and sulphorhodamine solutions (1 mM each) were exposed to electroporating conditions similar to those used in this study. No difference between the intensity of their fluorescence before and after exposure to electric fields could be detected. In addition, these molecules are stable up to a temperature of 100° C. (measured in terms of fluorescence).

[3] = assay type: in vitro ADME
From the text: Passive experiments without ultrasound with polyethylene glycol 200 dilaurate (PEG), isopropyl myristate (IM), and glycerol trioleate (GT) result in corticosterone flux enhancement values of only 2, 5, and 0.8, relative to the passive flux from PBS alone. […] These passive flux enhancements were due to (1) the increased corticosterone solubility in the enhancers, and (2) interactions of linoleic acid with the skin. Specifically, linoleic acid increased the corticosterone permeability by nearly 20-fold over that from 50% ethanol alone. […] Ultrasound combined with 50% ethanol produces a 2-fold increase in corticosterone transport above the passive case, but increase by 14-fold the transport from LA/Ethanol.

[4] = ethanol as chemical enhancer; cited from earlier work

SMILES: O=C(O)CN(CC(=O)O)Cc1cc2c(cc1O)Oc1cc(O)c(CN(CC(=O)O)CC(=O)O)cc1C21OC(=O)c2ccccc21 [calcein]
- enhancement: amount transported in the presence of ultrasound-electric field pulsing to that in the presence of electric field pulsing alone [1]: 2
- difference in fluorescence intensity before and after exposure to electric fields [2]: No difference

SMILES: C[C@]12C[C@H](O)[C@H]3[C@@H](CCC4=CC(=O)CC[C@@]43C)[C@@H]1CC[C@@H]2C(=O)CO [corticosterone]
- flux [3]: 0.16 mg/cm^2/hr
- flux relative to that from PBS alone [3]: 13,000 fold
- flux with ultrasound relative to the passive flux from the same enhancers [3]: 1.3-5.0
- permeability increase by linoleic acid over that from 50% ethanol alone [3]: ~20 fold

SMILES: C[C@]12CC[C@@H]3c4ccc(O)cc4CC[C@H]3[C@@H]1CC[C@@H]2O [estradiol]
- flux increase by ethanol [4]: 140 fold

SMILES: O=S(=O)([O-])c1cc(S(=O)(=O)O)ccc1C1=c2cc3c4c(c2Oc2c1cc1c5c2CCCN5CCC1)CCC[N+]=4CCC3 [sulphorhodamine]
- difference in fluorescence intensity before and after exposure to electric fields [2]: No difference
